The NIST ThermoML archive (doi:10.1021/je500275j)

Assay: xn = mol fraction of the nth substance listed
Settings: 100 kPa, Liquid; for viscosity: Falling or rolling sphere viscometry; for mass density: Vibrating tube method

C1CCC(C2CCCCC2)CC1 [1,1'-bicyclohexyl] + CCCCC1CCCCC1
Settings | mass density [kg/m3] | viscosity [mPa·s]
293.15 K, x1 = 0.1002 | 809.11 | 1.43
293.15 K, x1 = 0.2003 | 818.37 | 1.585
293.15 K, x1 = 0.2997 | 827.41 | 1.757
293.15 K, x1 = 0.4002 | 836.41 | 1.952
293.15 K, x1 = 0.4999 | 845.11 | 2.184
293.15 K, x1 = 0.6011 | 853.76 | 2.45
293.15 K, x1 = 0.7003 | 862.14 | 2.759
293.15 K, x1 = 0.7999 | 870.34 | 3.132
293.15 K, x1 = 0.9008 | 878.53 | 3.563
293.15 K, x1 = 1 | 886.39 | 4.017
298.15 K, x1 = 0.1002 | 805.38 | 1.311
298.15 K, x1 = 0.2003 | 814.66 | 1.449
298.15 K, x1 = 0.2997 | 823.71 | 1.6
298.15 K, x1 = 0.4002 | 832.69 | 1.772
298.15 K, x1 = 0.4999 | 841.44 | 1.975
298.15 K, x1 = 0.6011 | 850.11 | 2.205
298.15 K, x1 = 0.7003 | 858.51 | 2.471
298.15 K, x1 = 0.7999 | 866.72 | 2.797
298.15 K, x1 = 0.9008 | 874.92 | 3.15
298.15 K, x1 = 1 | 882.79 | 3.541
303.15 K, x1 = 0.1002 | 801.64 | 1.209
303.15 K, x1 = 0.2003 | 810.94 | 1.332
303.15 K, x1 = 0.2997 | 820.01 | 1.466
303.15 K, x1 = 0.4002 | 829.01 | 1.619
303.15 K, x1 = 0.4999 | 837.77 | 1.796
303.15 K, x1 = 0.6011 | 846.46 | 1.998
303.15 K, x1 = 0.7003 | 854.87 | 2.231
303.15 K, x1 = 0.7999 | 863.09 | 2.508
303.15 K, x1 = 0.9008 | 871.31 | 2.812
303.15 K, x1 = 1 | 879.19 | 3.145
308.15 K, x1 = 0.1002 | 797.9 | 1.12
308.15 K, x1 = 0.2003 | 807.21 | 1.229
308.15 K, x1 = 0.2997 | 816.31 | 1.349
308.15 K, x1 = 0.4002 | 825.32 | 1.485
308.15 K, x1 = 0.4999 | 834.1 | 1.643
308.15 K, x1 = 0.6011 | 842.81 | 1.821
308.15 K, x1 = 0.7003 | 851.24 | 2.022
308.15 K, x1 = 0.7999 | 859.47 | 2.272
308.15 K, x1 = 0.9008 | 867.7 | 2.53
308.15 K, x1 = 1 | 875.6 | 2.817
313.15 K, x1 = 0.1002 | 794.15 | 1.041
313.15 K, x1 = 0.2003 | 803.48 | 1.139
313.15 K, x1 = 0.2997 | 812.6 | 1.247
313.15 K, x1 = 0.4002 | 821.64 | 1.368
313.15 K, x1 = 0.4999 | 830.43 | 1.508
313.15 K, x1 = 0.6011 | 839.15 | 1.665
313.15 K, x1 = 0.7003 | 847.6 | 1.844
313.15 K, x1 = 0.7999 | 855.85 | 2.061
313.15 K, x1 = 0.9008 | 864.1 | 2.288
313.15 K, x1 = 1 | 872.01 | 2.54
318.15 K, x1 = 0.1002 | 790.39 | 0.971
318.15 K, x1 = 0.2003 | 799.75 | 1.059
318.15 K, x1 = 0.2997 | 808.89 | 1.157
318.15 K, x1 = 0.4002 | 817.94 | 1.265
318.15 K, x1 = 0.4999 | 826.76 | 1.391
318.15 K, x1 = 0.6011 | 835.5 | 1.532
318.15 K, x1 = 0.7003 | 843.97 | 1.689
318.15 K, x1 = 0.7999 | 852.23 | 1.883
318.15 K, x1 = 0.9008 | 860.5 | 2.082
318.15 K, x1 = 1 | 868.43 | 2.302
